# Measurements from US20250312269A1, “ADMINISTRATION OF A P[…] BY INT[…]” (RESET PHARMACEUTICALS, INC., priority 2022, published 2025).
# Where two headings read alike, the source gives them in different places.
# Tests used:
# [1] = One-compartment IM PK model fitted to published DMT IM data; design: species or system human; details: estimate (95% CI)
# Description: (§1) DMT IM data was digitised from Kaplan et al. “Blood and urine levels of N,N-dimethyltryptamine following administration of psychoactive dosages to human subjects” Psychopharmacologia 38, 239-245 (1974). A one compartment model was used with linear absorption and clearance to describe the human IM data from Kaplan et al. 1974, and is shown schematically in FIG. 3. Mathematically, this model is a series of two linked ordinary differential equations (ODE's) given in equations (7)-(8).
# Constant ka is the absorption rate constant (units 1/min), Cl is the clearance (units mL/min), Vc is the volume of distribution of the central compartment (units mL).
# The model gives a satisfactory fit of the absorption phase, seen in FIG. 5, where the line is the simulate PK model and the points are the raw data. The fitted PK parameters can be found in Table 3.
# [2] = Non-compartmental analysis of DMT IM bioavailability from digitised published data; type: in vivo; details: human, blood, intramuscular, 0.7 mg/kg, 0.7 mg/kg IM
# Description: as §1
# The points are the mean data, and the error bars are plus and minus the SEM. Non-compartmental analysis (NCA) was run to calculate the dose normalised AUC at four dose levels. The bioavailability of the IM data was then calculated, equation (3), at all four dose levels seen in Table 2, due to the IM dose being 0.7 mg/kg the 0.4 mg/kg bioavailability values were taken and therefore bioavailability was assumed to be one for the rest of the modelling.
# [3] = Particle size distribution (PSD) analysis by laser diffraction of feed and micronised compound; type: physicochemical; details: primary pressure of 4 bar, lens R1/R3/R5 per sample
# Protocol: In order to provide a small and homogeneous particle size of psychedelic compound in the final suspensions, psilocybin and psilocin were micronised before use. Micronisation was performed by wet bead milling using decafluoropentane as the antisolvent. In a glass vial, 200 mg psychedelic compound and 2 g of 1 mm silica beads were weighed. 3 mL of the antisolvent was added for psilocybin and 2 mL for psilocin. The samples were vortexed for approximately 15 seconds then milled at 530 rpm for 60 minutes.
# (§2) The micronised sample was then separated from the silica beads and transferred to a petri dish and left at room temperature to allow for evaporation of the solvent overnight (approximately 18 hours). The dried sample was then collected and characterised by PSD and XRPD.
# Particle size analysis was carried out, in single analysis, by laser diffraction using a Sympatec Helos particle size analyser, equipped with a RODOS dry dispersion unit and ASPIROS feeder unit. The lens and primary pressures were varied for each compound tested.
# [4] = Solubility assessment in excipients / vehicles
# [5] = Human IM simulations of psilocin exposure, one (native) absorption rate; details: 'native' absorption rate taken from DMT IM model
# Protocol: The model that was used is shown schematically in FIG. 6, mathematically the analytical solution is shown in equations (9)-(14).
# Using the absorption rate from modelling the IM DMT data and the human systemic psilocin PK parameters, human IM simulations were run over 1-12 mg doses and the simulated PK profiles can be seen in FIG. 8. […] It was therefore investigated which dose produces the therapeutic plasma level (5 ng/mL) quickly, this can be seen in Table 4.
# [6] = Two-compartment IV bolus PK model fitted to published psilocin plasma data after psilocybin IV; design: species or system human; details: estimate (95% CI)
# Protocol: All analysis was performed using the software R and RStudio, with models being defined using analytical and ODE solutions.
# Systemic PK parameters were derived for published human bolus psilocybin IV data. Human IV PK data for psilocin after psilocybin was administered was taken from Hasler et al. “Determination of psilocin and 4-hydroxyindole-3-acetic acid in plasma by HPLC-ECD and pharmacokinetic profiles of oral and intravenous psilocybin in man”. Pharm Acta Helv. 1997 June; 72(3):175-84. Model selection was performed by assessing visual fit to data and the respective model AIC's of a one compartment and two compartment IV PK model. These systemic human PK parameters were then used for human intramuscular injection simulations by simulating the PK profiles over a range of doses and absorption rates.
# It is assumed that the generation of psilocin is instantaneous and complete once psilocybin is absorbed.
# An IV two compartment model best described the IV data from FIG. 2. A two-compartment model gave a good description of the raw data capturing the Cmax and terminal phase well, FIG. 3. The systemic PK parameters can be seen in Table 1 and there are low errors in the parameter estimates.
# [7] = XRPD analysis after micronisation; type: physicochemical; details: wet bead milling in decafluoropentane
# Protocol: as §2
# X-ray powder diffraction (XRPD) analysis was carried out using a Bruker D2 Phaser powder diffractometer equipped with a LynxEye detector. The specimens were located at the centre of a silicon sample holder within a 5 mm pocket. The samples were continuously spun during data collection and scanned using a step size of 0.02° two theta (28) between […] to 60° two theta, the detailed parameters are summarised in Table 11. The data was processed using Diffrac Plus EVA software (Version 3.1).
# [8] = cited from earlier work
# [9] = IV administration; cited from earlier work
smiles,measurement,setting,value
"CN(C)CCc1c[nH]c2ccccc12 [DMT, N,N-dimethyltryptamine]",ka,[1]; absorption rate constant,"0.153 (−0.311, 0.616) ^ /min"
same,CI,[1]; clearance,"21900 (4690, 39100) ml/min"
same,V,[1]; 0.7 mg/kg IM,"353000 (−397000, 1100000) ml"
same,bioavailability,[2]; AUC of IV infusion dose 0.05 mg/kg,46.3%
same,bioavailability,[2]; AUC of IV infusion dose 0.1 mg/kg,77.8%
same,bioavailability,[2]; AUC of IV infusion dose 0.2 mg/kg,132%
same,bioavailability,[2]; AUC of IV infusion dose 0.4 mg/kg,162%
"CN(C)CCc1c[nH]c2cccc(O)c12 [Feed psilocin, psilocin]",D10,[3],20.36 μm
same,D50,[3],106.05 μm
same,D90,[3],232.08 μm
"CN(C)CCc1c[nH]c2cccc(OP(=O)(O)O)c12 [Feed psilocybin, psilocybin]",D10,[3],1.16 μm
same,D50,[3],5.46 μm
same,D90,[3],16.32 μm
"CN(C)CCc1c[nH]c2cccc(O)c12 [Micronised psilocin, psilocin]",D10,[3],0.44 μm
same,D50,[3],1.07 μm
same,D90,[3],2.27 μm
"CN(C)CCc1c[nH]c2cccc(OP(=O)(O)O)c12 [Micronised psilocybin, psilocybin]",D10,[3],0.45 μm
same,D50,[3],1.20 μm
same,D90,[3],3.13 μm
"CN(C)CCc1c[nH]c2cccc(O)c12 [psilocin, 4-hydroxy-N,N-dimethyltryptamine]",solubility versus pH,[4]; initial solution trials in aqueous vehicles,higher solubility at acidic pH
same,solubility in DMSO and NMP,[4]; non-micronised,good solubility
same,absorption half-life,[5],4.53 min
same,CI,"[6]; clearance, fit to 1 mg psilocybin IV data","3810 (3340, 4290) ml/min"
same,k21,[6]; distribution rate from peripheral compartment,"0.0489 (0.0388, 0.0591) /min"
same,k12,[6]; distribution rate to peripheral compartment,"0.176 (0.144, 0.208) /min"
same,V,"[6]; volume of distribution of central compartment, fit to 1 mg psilocybin IV data","88600 (77300, 99900) ml"
same,chemical degradation upon micronisation (XRPD),[7],no significant chemical degradation
"CN(C)CCc1c[nH]c2cccc(OP(=O)(O)O)c12 [psilocybin, [3-(2-dimethylaminoethyl)-1H-indol-4-yl]dihydrogen phosphate]",duration,[8]; oral dosing,4 to 8 h
same,maximum effect (time),[8]; oral dosing,60 to 90 min
same,onset of action,[8]; oral dosing,20 to 40 min
same,bioavailability,"[8]; reported, oral dosing context",approximately 50%
same,solubility in all the excipients tested,"[4]; non-micronised, 20 excipients",poor solubility
same,duration of the psychological effects,[9],20 minutes
same,onset of action,[9],1 to 2 min
same,chemical degradation upon micronisation (XRPD),[7],no significant chemical degradation
